From PMC6270001, “Synthesis and Antiviral Activity of N-Phenylbenzamide Derivatives, a Novel Class of Enterovirus 71 Inhibitors” (Molecules, 2013)

Assays:
[1] = test system: EV 71 strains SZ-98, JS-52-3, H, BrCr; assay: Anti EV 71 activity assay in Vero cells, summary over the four strains tested; format: cell-based, Enterovirus 71
Description: (§1) The EV 71 was divided into three genotypes A, B and C based on nucleotide sequence comparisons, and genotypes B and C were subdivided into B1-B5 and C1-C5 [6, 10]. Genotype C is the most common genotype found in mainland China, especially the C4 subgenotype. Consequently, the intermediate compounds 1a, 1c and 1e, and the final products 2a–c, 3a–g, and 5a–f were evaluated for their anti-EV 71 activity in Vero cells against genotypes C4 (strains SZ-98 and JS-52-3), C2 (strain H) and A (strain BrCr). […] The IC50 values were calculated by the Reed and Muench method, and the cytotoxicity was monitored by the CPE method.
(§2) Vero cells were purchased from the American Type Culture Collection and cultured in Minimum Essential Medium (MEM) supplemented with 10% Fetal Bovine Serum (FBS) and antibiotics (100 U/mL penicillin G, 100 μg/mL streptomycin). Enterovirus 71 (EV 71) strain SZ-98 was kindly provided by Dr. Qi Jin, Institute of Pathogen Biology, Chinese Academy of Medical Science and Peking Union Medical School. Enterovirus 71 (EV 71) strain BrCr (VR-1775) was purchased from the American Type Culture Collection. Enterovirus 71 (EV 71) strain JS-52-3 was kindly provided by Dr. Xiang-zhong Ye, Beijing Wantai Biological Pharmacy Enterprise Co., Ltd. All Enterovirus 71 strains were propagated in Vero cells.
(§3) All compounds were dissolved in DMSO at 20 mg/mL as a stock solution and further diluted in culture medium prior to use. The initial concentration in all cytotoxicity assay was 200 µg/mL, and inhibition assay for anti-EV71 experiments was from maximum non-toxic concentration, and proceeded serially 3-fold dilution with culture medium. All cytotoxicity and activity assay for each compound was repeated for three times, and the data was indicated as average ± SD.
(§4) Confluent Vero cells grown in 96-well microplates were infected respectively with 100 median tissue culture infective dose (TCID50) EV 71. After 1 h adsorption at 37 °C, the monolayers were washed by PBS and incubated at 37 °C in the maintenance medium with or without different concentrations of test compounds.

[2] = test system: EV 71 strain H (genotype C2); assay: Anti EV 71 activity assay (CPE, Reed & Muench) in Vero cells, strain H; format: cell-based, Enterovirus 71; conditions: for IC50: Enterovirus A, Vero, EV 71 strain H (C2 genotype), Vero cells, 100 TCID50, CPE, average ± SD, n=3; for SI H: selectivity index TC50/IC50, strain H, "-" stands for no antiviral selectivity
Description: as §1, §2, §3, §4

Vero cells = assay: Cytotoxicity determination in Vero cells monitored by cytopathic effect (CPE); format: cell-based; conditions: 48 h, Reed & Muench, concentration that inhibits 50% cellular growth, average ± SD, n=3
Description: as §2, with “Enterovirus 71 (EV 71) strain BrCr (VR-1775) was purchased from the American Type Culture Collection.” left out
as §3
The cytotoxicity of compounds in the presence of Vero cells was monitored by cytopathic effect (CPE). Vero cells (2.5 × 10^4/well) were plated into a 96-well plate. A total of 24 h later, the monolayer cells were incubated in the presence of various concentrations of test compounds. […] The median toxic concentration (TC50) was calculated by Reed & Muench analyses.

[3] = test system: EV 71 strain JS-52-3 (genotype C4); assay: Anti EV 71 activity assay (CPE, Reed & Muench) in Vero cells, strain JS-52-3; format: cell-based, Enterovirus 71; conditions: for IC50: Enterovirus A, Vero, EV 71 strain JS-52-3, Vero cells, 100 TCID50, CPE, average ± SD, n=3; for SI JS-52-3: selectivity index TC50/IC50, strain JS-52-3, "-" stands for no antiviral selectivity
Description: as §1, §2, §3, §4

[4] = test system: EV 71 strain SZ-98 (genotype C4); assay: Anti EV 71 activity assay (CPE, Reed & Muench) in Vero cells, strain SZ-98; format: cell-based, Enterovirus 71; conditions: for IC50: Enterovirus A, Vero, EV 71 strain SZ-98, Vero cells, 100 TCID50, CPE, average ± SD, n=3
Description: as §1, §2, §3, §4

[5] = test system: EV 71 strain BrCr (genotype A); assay: Anti EV 71 activity assay (CPE, Reed & Muench) in Vero cells, strain BrCr; format: cell-based, Enterovirus 71; conditions: for IC50: Enterovirus A, Vero, EV 71 strain BrCr, Vero cells, 100 TCID50, CPE, average ± SD, n=3; for SI BrCr: selectivity index TC50/IC50, strain BrCr, "-" stands for no antiviral selectivity
Description: as §1, §2, §3, §4

16 enteroviruses = conditions: cited from earlier work

SMILES	selectivity index (SI) values (range over strains) ([1]; TC50/IC50, range over the EV 71 strains tested)	IC50 [2]	SI H [2]	TC50 (Vero cells)	IC50 [3]	SI JS-52-3 [3]	IC50 [4]	SI SZ-98 ([4]; selectivity index TC50/IC50, strain SZ-98, "-" stands for no antiviral selectivity)	melting point	IC50 [5]	SI BrCr [5]	concentration effective against 80% of 16 enteroviruses tested (16 enteroviruses)	anti-EV 71 activity (in words) ([1]; structure-activity discussion)
COc1ccc(C(=O)Nc2ccc(Br)cc2)cc1N [Compound 1e, 3-Amino-N-(4-bromophenyl)-4-methoxybenzamide]	51–110	5.7 ± 0.8 µM	110	620 ± 0.0 µM	9.8 ± 0.4 µM	64	12 ± 1.1 µM	51	190 to 192 °C	9.1 ± 1.4 µM	68	–	–
CCOC(=O)c1ccc(OCCC2CCN(c3ccc(C)nn3)CC2)cc1 [Pirodavir, pirodavir, reference compound]	–	0.6 ± 0.1 µM	–	31 ± 2.2 µM	1 ± 0.2 µM	–	1.2 ± 0.2 µM	–	–	1 ± 0.2 µM	–	1.3 µg/mL	–
COc1ccc(C(=O)NC2CCCCC2)cc1NC(=O)C(C)F (stereo not drawn) [Compound 2b, N-Cyclohexyl-3-(2-fluoropropanamido)-4-methoxybenzamide]	–	430 ± 36 µM	>1.4	>620 µM	210 µM	>3.0	> 620 µM	–	192 to 194 °C	360 ± 26 µM	>1.7	–	no anti-EV 71 activity was observed
